Measurements from patent US11040028B2, “Penicinotam derivative, preparation method and use thereof” (OCEAN UNIVERSITY OF CHINA, priority 2017, dated 2021).

Assays:
Format in all cases: cell-based
[1] = test system: human lung fibroblasts HFL1; experiment: Anti-fibrosis activity test: inhibition of proliferation of human lung fibroblasts HFL1 (CCK-8); conditions: Homo sapiens, HFL1, 48 h
Outline: (§1)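 After one day of adherence at 37° C in 5% CO2, cells (seeded at 2×10^4 cells/mL) received the compounds for two days in triplicate. Inhibition of proliferation was quantified with CCK-8 at 450 nm, with IC50 calculated from IR = (1−Ai/Ao)×100%.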

BHK-21 cells = experiment: Anti-fibrosis activity test: inhibition of BHK-21 cell proliferation (CCK-8); conditions: Mesocricetus auratus, BHK-21, 48 h
Outline: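 Each concentration was tested in triplicate on adhered BHK-21 cells for 48 h, with pirfenidone as reference. A 2 h CCK-8 incubation preceded absorbance reading at 450 nm, and IC50 was obtained from percent inhibition versus blank.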

[2] = test system: human hepatic stellate cells LX-2; experiment: Anti-fibrosis activity test: inhibition of proliferation of human hepatic stellate cells LX-2 (CCK-8); conditions: Homo sapiens, 48 h
Outline: as §1

[3] = test system: human embryonic lung fibroblast IMR-90; experiment: Anti-fibrosis activity test: inhibition of proliferation of human embryonic lung fibroblast IMR-90 (CCK-8)
Outline: as §1

[4] = test system: human fibrosarcoma cells HT-1080; experiment: Anti-fibrosis activity test: inhibition of proliferation of human fibrosarcoma cells HT-1080 (CCK-8); conditions: Homo sapiens, HT-1080, 48 h
Outline: as §1

[5] = test system: human dermal fibroblasts CCC-ESF-1; experiment: Anti-fibrosis activity test: inhibition of proliferation of human dermal fibroblasts CCC-ESF-1 (CCK-8); conditions: Fibroblast
Outline: as §1

NF-κB = experiment: Immunological activity test: inhibition of NF-κB activity; conditions: initial concentration of 30 μM; a/b isomers given as first/second symbol; read-out: IC50 (μM), inhibitory activity against NF-κB
Outline: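 Each compound is tested at 30 μM for its ability to suppress NF-κB signalling. Parthenolide runs alongside as the positive control, and the data are then analysed to give IC50 values.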

[6] = test system: mouse macrophages (RAW264.7); experiment: Lipopolysaccharide-induced NO secretion in macrophages (Griess); conditions: Mus musculus, RAW264.7, 24 h, RAW264.7, LPS 1 μg/ml, a/b isomers given as first/second symbol, read-out: IC50 (μM), inhibition of lipopolysaccharide-induced NO secretion in macrophages
Outline: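 LPS 1 μg/ml, 24 h, RAW264.7 (DMEM/10% FBS); cpds at varied concs. Supernatant NO by Griess, A548; % inhibition vs blank medium.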

[7] = test system: cardiac fibroblast RAT-iCell-C002; experiment: Anti-fibrosis activity test: inhibition of proliferation of cardiac fibroblast RAT-iCell-C002 (CCK-8); conditions: Cardiac fibroblast, 48 h
Outline: as §1

[8] = human lung fibroblasts HFL1, CCK-8, 48 hours
[9] = CCK-8, 48 hours after administration
[10] = human hepatic stellate cells LX-2, CCK-8, 48 hours
[11] = human embryonic lung fibroblast IMR-90, CCK-8, 48 hours
[12] = human fibrosarcoma cells HT-1080, CCK-8, 48 hours
[13] = human dermal fibroblasts CCC-ESF-1, CCK-8, 48 hours
[14] = cardiac fibroblast RAT-iCell-C002, CCK-8, 48 hours
[15] = Homo sapiens, IMR-90 cells, 48 h, CCK-8
[16] = Homo sapiens, CCC-ESF-1 cells, 48 h, CCK-8

Row | SMILES | IC50 [1, 8] [mM] | IC50 (BHK-21 cells; [9]) [mM] | IC50 [2, 10] [mM] | IC50 [3, 11] [mM] | IC50 [4, 12] [mM] | IC50 [5, 13] [mM] | IC50 (NF-κB) [µM] | IC50 [6] [µM] | IC50 [7, 14] [mM] | IC50 ([1]; HFL1 cells, 48 h, CCK-8) [mM] | IC50 (BHK-21 cells; 48 h, CCK-8) [mM] | IC50 ([2]; LX-2, 48 h, LX-2 cells, CCK-8) [mM] | IC50 [3, 15] [mM] | IC50 ([4]; HT-1080 cells, 48 h, CCK-8) [mM] | IC50 [5, 16] [mM] | IC50 ([7]; RAT-iCell-C002 cells, CCK-8) [mM]
1 | O=C1c2c(nc3ccccc3c2OCc2cccc(Cl)c2)-c2cccn21 [Compound 596b, 9-((3-chlorobenzyl)oxy)-10H-pyrrolizino[1,2-b]quinolin-10-one] | 0.05 to 5 | 0.05 to 5 | 0.05 to 5 | 0.05 to 5 | 0.05 to 5 | 0.05 to 5 | 1 to 10 | 1 to 10 | 0.05 to 5 | – | – | – | – | – | – | –
2 | O=C1c2c([nH]c3c(F)cccc3c2=O)-c2cccn21 [Compound 444a, 5-Fluoro-9H-pyrrolizino[1,2-b]quinoline-9,10(4H)-dione] | 0.05 to 5 | 0.05 to 5 | 0.05 to 5 | 0.05 to 5 | 0.05 to 5 | 0.05 to 5 | 1 to 10 | 0.1 to 1 | 0.05 to 5 | – | – | – | – | – | – | –
3 | O=C1c2c(n(Cc3ccc(F)c(Cl)c3)c3ccccc3c2=O)-c2cccn21 [Compound 603a, 4-(3-Chloro-4-fluorobenzyl)-9H-pyrrolizino[1,2-b]quinoline-9,10(4H)-dione] | 0.05 to 5 | < 0.05 | 0.05 to 5 | 0.05 to 5 | 0.05 to 5 | 0.05 to 5 | 1 to 10 | 1 to 10 | 0.05 to 5 | – | – | – | – | – | – | –
4 | COc1cccc(Cn2c3c(c(=O)c4ccccc42)C(=O)n2cccc2-3)c1 [Compound 610a, 4-(3-Methoxybenzyl)-9H-pyrrolizino[1,2-b]quinoline-9,10(4H)-dione] | 0.05 to 5 | 0.05 to 5 | 0.05 to 5 | 0.05 to 5 | 0.05 to 5 | 0.05 to 5 | 1 to 10 | 1 to 10 | 0.05 to 5 | – | – | – | – | – | – | –
5 | O=C1c2c(nc3ccccc3c2OCc2ccc([N+](=O)[O-])cc2)-c2cccn21 [Compound 593b, 9-((4-nitrobenzyl)oxy)-10H-pyrrolizino[1,2-b]quinolin-10-one] | 0.05 to 5 | 0.05 to 5 | 0.05 to 5 | 0.05 to 5 | 0.05 to 5 | 0.05 to 5 | 1 to 10 | 1 to 10 | 0.05 to 5 | – | – | – | – | – | – | –
6 | O=C1c2c(nc3ccccc3c2OCc2ccc(F)c(Cl)c2)-c2cccn21 [Compound 603b, 9-((3-chloro-4-fluorobenzyl)oxy)-10H-pyrrolizino[1,2-b]quinolin-10-one] | 0.05 to 5 | 0.05 to 5 | 0.05 to 5 | 0.05 to 5 | 0.05 to 5 | 0.05 to 5 | 1 to 10 | 1 to 10 | 0.05 to 5 | – | – | – | – | – | – | –
7 | O=C1c2c(nc3cc(F)ccc3c2OCc2ccc(Cl)cc2)-c2cccn21 [Compound 496b, 9-((4-chlorobenzyl)oxy)-6-fluoro-10H-pyrrolizino[1,2-b]quinolin-10-one] | 0.05 to 5 | 0.05 to 5 | 0.05 to 5 | 0.05 to 5 | 0.05 to 5 | 0.05 to 5 | 10 to 50 | 1 to 10 | 0.05 to 5 | – | – | – | – | – | – | –
8 | O=C1c2c(n(CCCN3CCCCC3)c3ccccc3c2=O)-c2cccn21 [Compound 666a, 4-(3-(Piperidin-1-yl)propyl)-9H-pyrrolizino[1,2-b]quinoline-9,10(4H)-dione] | – | – | – | – | – | – | 1 to 10 | 1 to 10 | – | 0.05 to 5 | 0.05 to 5 | 0.05 to 5 | 0.05 to 5 | 0.05 to 5 | 0.05 to 5 | 0.05 to 5
9 | N#Cc1cccc2nc3c(c(OCc4ccc(F)cc4)c12)C(=O)n1cccc1-3 [Compound 462b, 9-((4-fluorobenzyl)oxy)-10-oxo-10H-pyrrolizino[1,2-b]quinoline-8-carbonitrile] | 0.05 to 5 | 0.05 to 5 | 0.05 to 5 | 0.05 to 5 | 0.05 to 5 | 0.05 to 5 | 0.1 to 1 | 1 to 10 | 0.05 to 5 | – | – | – | – | – | – | –
10 | O=C1c2c(n(CCF)c3ccccc3c2=O)-c2cccn21 [Compound 653a, 4-(2-Fluoroethyl)-9H-pyrrolizino[1,2-b]quinoline-9,10(4H)-dione] | 0.05 to 5 | 0.05 to 5 | 0.05 to 5 | 0.05 to 5 | 0.05 to 5 | 0.05 to 5 | 1 to 10 | 1 to 10 | 0.05 to 5 | – | – | – | – | – | – | –
11 | O=C1c2c(n(Cc3c(F)cccc3F)c3ccccc3c2=O)-c2cccn21 [Compound 615a, 4-(2,6-Difluorobenzyl)-9H-pyrrolizino[1,2-b]quinoline-9,10(4H)-dione] | 0.05 to 5 | 0.05 to 5 | 0.05 to 5 | 0.05 to 5 | 0.05 to 5 | 0.05 to 5 | 0.1 to 1 | 10 to 50 | 0.05 to 5 | – | – | – | – | – | – | –
12 | O=C1c2c(c(=O)c3ccccc3n2CCCN2CCOCC2)-c2cccn21 [Compound 787a, 6-(3-Morpholinopropyl)-5H-pyrrolizino[2,1-b]quinoline-5,11(6H)-dione] | – | – | – | – | – | – | 1 to 10 | 10 to 50 | – | 0.05 to 5 | 0.05 to 5 | 0.05 to 5 | 0.05 to 5 | 0.05 to 5 | 0.05 to 5 | 0.05 to 5
13 | O=C1c2c(n(CCCCN3CCNCC3)c3ccccc3c2=O)-c2cccn21 [Compound 670a, 4-(4-(Piperazin-1-yl)butyl)-9H-pyrrolizino[1,2-b]quinoline-9,10(4H)-dione] | – | – | – | – | – | – | 0.1 to 1 | 1 to 10 | – | 0.05 to 5 | < 0.05 | 0.05 to 5 | < 0.05 | 0.05 to 5 | 0.05 to 5 | 0.05 to 5
14 | O=C1c2c(nc3ccccc3c2OCCCN2CCCCC2)-c2cccn21 [Compound 666b, 9-(3-(piperidin-1-yl)propoxy)-10H-pyrrolizino[1,2-b]quinolin-10-one] | – | – | – | – | – | – | 1 to 10 | 1 to 10 | – | 0.05 to 5 | 0.05 to 5 | 0.05 to 5 | 0.05 to 5 | 0.05 to 5 | 0.05 to 5 | 0.05 to 5
15 | O=C1c2c(nc3ccccc3c2OCc2ccc(I)cc2)-c2cccn21 [Compound 575b, 9-((4-iodobenzyl)oxy)-10H-pyrrolizino[1,2-b]quinolin-10-one] | 0.05 to 5 | 0.05 to 5 | 0.05 to 5 | 0.05 to 5 | 0.05 to 5 | 0.05 to 5 | 1 to 10 | 1 to 10 | 0.05 to 5 | – | – | – | – | – | – | –
16 | Cc1cccc2[nH]c3c(c(=O)c12)-c1cccn1C3=O [Compound 776a, 10-Methyl-5H-pyrrolizino[2,1-b]quinoline-5,11(6H)-dione] | – | – | – | – | – | – | 1 to 10 | 10 to 50 | – | 0.05 to 5 | < 0.05 | 0.05 to 5 | 0.05 to 5 | 0.05 to 5 | 0.05 to 5 | 0.05 to 5
17 | O=C1c2c(nc3ccccc3c2OCc2cccc([N+](=O)[O-])c2)-c2cccn21 [Compound 583b, 9-((3-nitrobenzyl)oxy)-10H-pyrrolizino[1,2-b]quinolin-10-one] | 0.05 to 5 | 0.05 to 5 | 0.05 to 5 | 0.05 to 5 | 0.05 to 5 | 0.05 to 5 | 1 to 10 | 1 to 10 | 0.05 to 5 | – | – | – | – | – | – | –
18 | N#Cc1ccc(COc2c3c(nc4ccccc24)-c2cccn2C3=O)cc1 [Compound 590b, 4-(((10-oxo-10H-pyrrolizino[1,2-b]quinolin-9-yl)oxy)methyl)benzonitrile] | 0.05 to 5 | 0.05 to 5 | 0.05 to 5 | 0.05 to 5 | 0.05 to 5 | 0.05 to 5 | 1 to 10 | 1 to 10 | 0.05 to 5 | – | – | – | – | – | – | –
19 | O=C1c2c(n(CCCN3CCNCC3)c3ccccc3c2=O)-c2cccn21 [Compound 669a, 4-(3-(Piperazin-1-yl)propyl)-9H-pyrrolizino[1,2-b]quinoline-9,10(4H)-dione] | – | – | – | – | – | – | 0.1 to 1 | 1 to 10 | – | 0.05 to 5 | 0.05 to 5 | 0.05 to 5 | 0.05 to 5 | 0.05 to 5 | 0.05 to 5 | 0.05 to 5
